The target of assay [1] is SQR (SDHC / altC) of IPO323 pTet::SDHC3 transformant, repressed (Zymoseptoria tritici, UniProt A0A1X7RQW2+F9X9V6+F9XH52+O42772). Kind of assay: Succinate-quinone (SQR) SDHI sensitivity assay on purified mitochondria, IPO323 pTet::SDHC3 repressed. It counts as biochemical. Particulars: for RF (resistance factor), pTet Repressed (SDHC / altC): IC50 ratio compared to IPO323 values; for IC50: IPO323 pTet::SDHC3 transformant grown in presence of 30 mg.L^-1 doxycycline, mean of three ± SD. The method, then:
(§1) Succinate-ubiquinone oxidoreductase (SQR) inhibition assays were performed on mitochondrial extracts from a panel of strains that were (i) either carrying a unique C-subunit encoding gene (ZtSDHC1, ZtSDHC1_A84I or Zt-SDHC3), or (ii) carrying two C-subunit encoding genes ZtSDHC1 and ZtSDHC3 (Table 1).
(§2) Biomass production, mitochondrial extraction and purification were performed as described in [14]. Succinate: ubiquinone/DCPIP sensitivity tests were performed as described in [14] with minor modification.

Assay [2] has as its system SQR (SDHC / altC) of IPO323 pTet::SDHC3 transformant, induced. Kind of assay: Succinate-quinone (SQR) SDHI sensitivity assay on purified mitochondria, IPO323 pTet::SDHC3 induced. It counts as biochemical, Zymoseptoria tritici. To be noted: IPO323 pTet::SDHC3 transformant grown in the absence of doxycycline; mean of three ± SD. The procedure: as §1, §2
Assay [3] concerns the target altC-SQR (altC) of D024 SDHC1 KO mitochondria (Zymoseptoria tritici, UniProt A0A1X7RQW2+F9X9V6+O42772). Kind of assay: Succinate-quinone (SQR) SDHI sensitivity assay on purified mitochondria, 06STD024 SDHC1 KO. Format: biochemical. To be noted: for RF (resistance factor), D024 SDHC1 KO (altC): IC50 ratio compared to IPO323 values; for IC50: mitochondria of 06STD024 ZtSDHC1 deletion mutant (pure altC-SQR), mean of three ± SD. The procedure: as §1, §2

Assay [4] concerns the target SQR of 06STD024 (SDHC / altC) mitochondria (Zymoseptoria tritici, UniProt A0A1X7RQW2+F9X9V6+F9XH52+O42772). Kind of assay: Succinate-quinone (SQR) SDHI sensitivity assay on purified mitochondria, 06STD024. It counts as biochemical. Particulars: for RF (resistance factor), 06STD024 (SDHC / altC): IC50 ratio compared to IPO323 values; for IC50: mitochondria of field isolate 06STD024, mean of three ± SD. The procedure:
as §1, §2

Assay [5] deals with SQR (SDHC) of D024 SDHC3 KO mitochondria (Zymoseptoria tritici, UniProt F9X9V6+F9XH52+O42772). Kind of assay: Succinate-quinone (SQR) SDHI sensitivity assay on purified mitochondria, 06STD024 SDHC3 KO. It counts as biochemical. To be noted: for RF (resistance factor), D024 SDHC3 KO (SDHC): IC50 ratio compared to IPO323 values; for IC50: mitochondria of 06STD024 ZtSDHC3 deletion mutant, mean of three ± SD. The procedure: as §1
SQR (SDHC) of D024 SDHC3 KO mitochondria, sequence (F9XH52 44-187): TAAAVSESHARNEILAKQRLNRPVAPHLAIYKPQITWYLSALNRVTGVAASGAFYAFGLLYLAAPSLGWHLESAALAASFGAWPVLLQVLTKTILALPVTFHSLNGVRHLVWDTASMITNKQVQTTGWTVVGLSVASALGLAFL
SQR (SDHC) of D024 SDHC3 KO mitochondria, sequence (O42772 19-297): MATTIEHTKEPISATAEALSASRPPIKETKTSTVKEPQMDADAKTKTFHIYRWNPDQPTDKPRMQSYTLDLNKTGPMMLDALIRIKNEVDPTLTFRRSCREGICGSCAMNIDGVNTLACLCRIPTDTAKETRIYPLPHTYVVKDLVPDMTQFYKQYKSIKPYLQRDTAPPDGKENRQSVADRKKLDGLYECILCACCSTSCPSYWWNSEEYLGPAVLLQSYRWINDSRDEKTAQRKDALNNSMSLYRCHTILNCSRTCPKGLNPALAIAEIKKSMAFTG
SQR (SDHC) of D024 SDHC3 KO mitochondria, sequence (F9X9V6 1-193): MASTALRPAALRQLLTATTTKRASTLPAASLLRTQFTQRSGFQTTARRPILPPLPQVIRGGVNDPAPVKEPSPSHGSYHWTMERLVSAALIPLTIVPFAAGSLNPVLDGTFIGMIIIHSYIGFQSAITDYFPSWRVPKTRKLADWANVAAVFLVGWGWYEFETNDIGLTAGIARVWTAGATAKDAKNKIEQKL
SQR (SDHC) of D024 SDHC3 KO mitochondria, sequence (F9WWR1 29-643 partner): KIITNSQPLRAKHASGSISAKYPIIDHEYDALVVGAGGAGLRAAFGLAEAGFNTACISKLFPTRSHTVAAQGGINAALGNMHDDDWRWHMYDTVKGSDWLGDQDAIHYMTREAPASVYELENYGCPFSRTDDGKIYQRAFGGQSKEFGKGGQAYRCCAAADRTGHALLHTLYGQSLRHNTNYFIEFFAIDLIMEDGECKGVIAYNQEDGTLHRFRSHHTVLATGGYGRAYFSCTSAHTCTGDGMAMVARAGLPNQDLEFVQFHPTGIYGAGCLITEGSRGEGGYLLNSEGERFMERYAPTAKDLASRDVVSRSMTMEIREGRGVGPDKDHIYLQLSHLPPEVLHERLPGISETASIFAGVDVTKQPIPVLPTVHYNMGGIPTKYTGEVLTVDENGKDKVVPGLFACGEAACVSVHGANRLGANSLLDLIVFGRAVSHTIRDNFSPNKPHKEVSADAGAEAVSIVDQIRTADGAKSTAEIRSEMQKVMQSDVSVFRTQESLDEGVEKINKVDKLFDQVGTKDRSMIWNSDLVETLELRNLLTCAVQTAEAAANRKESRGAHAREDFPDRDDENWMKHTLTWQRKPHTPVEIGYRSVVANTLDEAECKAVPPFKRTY
(§3) Biomass production, mitochondrial extraction and purification were performed as described in [14]. Succinate: ubiquinone/DCPIP sensitivity tests were performed as described in [14] with minor modification. The different mitochondrial suspensions were adjusted to similar initial velocity (1 OD595nm hour^-1) and inhibitor concentrations ranged between 0.047nM and 50μM with uniform 4x dilution steps (11 concentrations + DMSO control). Calculated absorbance slopes (OD/min) were used for IC50 calculations using GraphPad Prism 6.07 software non-linear curve fitting against log inhibitor concentrations.

The subject of assay [6] is Zymoseptoria tritici field and genetically modified strains. Description: Liquid culture assay for fungicide sensitivity determination. Format: cell-based. Particulars: Zymoseptoria tritici, liquid culture sensitivity. The method, then:
Sensitivity towards commercial fungicides was determined for a set of 99 SHA-SDHI-naïve Z. tritici field isolates sampled in Europe between 2006 and 2009. The EC50 of these isolates was determined in liquid growth assays and the data obtained compared for each possible pair of SDHI fungicides (cross-resistance (XR) plots, Fig 1). […] Comparative succinate-quinone reductase (SQR) enzyme inhibition tests were performed with mitochondria extracted from a panel of SHA-SDHIs tolerant and sensitive isolates.
In order to characterize in more depth the mechanisms driving sensitivity differences across the isolates, a subset of eight isolates carrying the ZtSDHC3 gene was analyzed for their sensitivity to SDHIs, alt-SDHC expression and splicing patterns. Liquid culture growth sensitivity tests were performed to determine EC50s for this set of isolates towards a wide range of commercial and research SDHIs (S5 Table).
Pre-culture of the inoculum and fungicide sensitivity tests were performed following previously described procedures. Different ranges of inhibitor concentrations were used for population monitoring and for the detailed phenotyping of a selected set of individual field isolates and genetically modified strains. For fungicide sensitivity monitoring of European field populations, final inhibitors concentrations were between 100 mg.L^-1 and 0.0001 mg.L^-1 with uniform 10x dilution steps (7 inhibitor concentrations + DMSO control). For refined sensitivity analysis of a smaller panel of isolates final inhibitor concentrations ranged between 0.5 mM and 0.47 nM with uniform 4x dilution factor steps (11 inhibitor concentrations+ DMSO control).

For assay [7], the target named is WT-SQR (SDHC), IPO323 mitochondria (Zymoseptoria tritici, UniProt F9X9V6+F9XH52+O42772). Kind of assay: Succinate-quinone (SQR) SDHI sensitivity assay on purified mitochondria, IPO323. It counts as biochemical. The procedure:
as §1, §3

In assay [8] the test system is Zymoseptoria tritici isolates. Description: Growth tests on solid agar at discriminatory fungicide concentrations. It counts as cell-based. To be noted: for Growth phenotype on SDHI-amended plate: AE agar, isofetamid 5 mg.L^-1, 10 DPI (procedure of Fig 6). An excerpt:
Fig 6 Resistance to SHA-SDHIs in Z. tritici EU populations. […] Sensitivity data are sorted by genotype according to the presence of the ZtSDHC3 gene. ** p value of 0.0029 in Welch’s corrected unpaired t-test. (B) Solid agar growth of a collection of 93 Z. tritici isolates sampled in 2009 (same set as above). Individual strains from this collection are boxed and numbered 1 to 93. Boxes A and B correspond to reference resistant strains 06STD024 and 07STGB009 respectively. Box C corresponds to IPO323 reference sensitive isolate. The yellow framed boxes correspond to strains carrying the ZtSDHC3 gene. Yellow arrow designates strain 09STIR20.1 (number 78) carrying a non-functional alt-SDHC (frameshift, S6 Table).
A large scale spotting assay of 96 isolates (Fig 6) was performed using the V&P 96 floating pin tool VP408FP6 (V&P Scientific), equipped with flat tip FP6 pins of 1.58 mm diameter (resulting in approx. 0.4 μl transfer volume). Source cultures for cell spotting were grown in 100 μl YPD liquid medium in a 96 well flat bottom plate (Corning, 3370) at 18°C for 11 days (average cell density of 3.5·10^6/ml), then diluted 1:2x in fresh YPD medium and incubated for another 1.5 h before transfer with the pin tool (approx. 700 cells per spot) onto AE agar with or without fungicide. Plates were incubated at 20°C in the dark for up to 18 days. Smaller scale spotting assays (Figs 4 and 8) were performed using 5 days V8-agar plates inoculums adjusted to 2.10^6 spores.mL^-1 in water and diluted in steps of 3. 2μL of spore suspension was spotted on the plates, and the plates were incubated shielded from light at 21°C for 6 days.

Read-outs that look alike come from different tables or passages of the source.

In general, IC50 refers to the concentration that gives 50% inhibition. In general, EC50 refers to the concentration giving half of the maximal effect.

WT-SQR (SDHC), IPO323 mitochondria, sequence (F9WWR1 entry or part of it): as the sequence (F9WWR1 29-643 partner) above
WT-SQR (SDHC), IPO323 mitochondria, sequence (F9X9V6 entry or part of it): as the sequence (F9X9V6 1-193) above
WT-SQR (SDHC), IPO323 mitochondria, sequence (O42772 19-297): as the sequence (O42772 19-297) above
WT-SQR (SDHC), IPO323 mitochondria, sequence (F9XH52 entry or part of it): as the sequence (F9XH52 44-187) above
SQR (SDHC / altC) of IPO323 pTet::SDHC3 transformant, repressed, sequence (F9XH52 44-187): as above
SQR (SDHC / altC) of IPO323 pTet::SDHC3 transformant, repressed, sequence (O42772 20-297): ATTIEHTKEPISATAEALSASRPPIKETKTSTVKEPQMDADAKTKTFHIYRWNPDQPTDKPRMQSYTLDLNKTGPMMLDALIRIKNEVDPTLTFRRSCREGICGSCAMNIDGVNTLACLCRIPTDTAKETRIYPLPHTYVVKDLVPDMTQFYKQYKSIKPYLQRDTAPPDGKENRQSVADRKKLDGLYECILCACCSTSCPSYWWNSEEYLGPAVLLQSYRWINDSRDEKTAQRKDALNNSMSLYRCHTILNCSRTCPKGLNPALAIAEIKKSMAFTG
SQR (SDHC / altC) of IPO323 pTet::SDHC3 transformant, repressed, sequence (F9X9V6 1-193): as the sequence (F9X9V6 1-193) above
SQR (SDHC / altC) of IPO323 pTet::SDHC3 transformant, repressed, sequence (A0A1X7RQW2 36-181): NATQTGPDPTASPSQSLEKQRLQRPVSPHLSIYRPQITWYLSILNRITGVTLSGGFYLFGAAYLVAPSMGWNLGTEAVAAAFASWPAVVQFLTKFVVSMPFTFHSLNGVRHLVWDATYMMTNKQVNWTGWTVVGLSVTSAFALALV
SQR (SDHC / altC) of IPO323 pTet::SDHC3 transformant, repressed, sequence (F9WWR1 41-643 partner): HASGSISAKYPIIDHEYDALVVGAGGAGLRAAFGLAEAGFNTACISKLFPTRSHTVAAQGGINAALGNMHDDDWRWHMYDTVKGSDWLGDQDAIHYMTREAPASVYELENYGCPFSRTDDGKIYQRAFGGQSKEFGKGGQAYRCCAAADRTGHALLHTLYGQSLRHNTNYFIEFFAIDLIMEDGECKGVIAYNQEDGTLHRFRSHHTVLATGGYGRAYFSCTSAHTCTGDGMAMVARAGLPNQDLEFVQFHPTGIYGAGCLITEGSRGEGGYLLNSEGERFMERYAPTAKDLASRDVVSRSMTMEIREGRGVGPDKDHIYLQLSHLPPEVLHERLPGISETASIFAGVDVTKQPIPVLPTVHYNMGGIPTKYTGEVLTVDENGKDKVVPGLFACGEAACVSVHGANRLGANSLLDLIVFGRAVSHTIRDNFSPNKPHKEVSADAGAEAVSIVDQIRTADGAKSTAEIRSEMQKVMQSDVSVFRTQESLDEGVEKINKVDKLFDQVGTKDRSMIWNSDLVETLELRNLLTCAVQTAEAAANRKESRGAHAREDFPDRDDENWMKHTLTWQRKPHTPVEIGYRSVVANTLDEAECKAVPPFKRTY

For the compound `O=C(Nc1ccccc1-c1ccc(Cl)cc1)c1cccnc1Cl` [Boscalid], the “RF (resistance factor), pTet Repressed (SDHC / altC)” value in assay [1] came to 1.8. Besides, the IC50 was found to be 29.8 ± 4 nM in assay [1]; 40.3 ± 2.7 nM in assay [2]; 54.4 ± 12.9 nM in assay [3]; 61.9 ± 16 nM in assay [4]; 16.4 ± 2.4 nM in assay [5]; 17 ± 3.7 nM in assay [7]. Further, in assay [3], the “RF (resistance factor), D024 SDHC1 KO (altC)” value stood at 3.2. Moreover, the “RF (resistance factor), 06STD024 (SDHC / altC)” value in assay [4] is on record as 3.6. For the same compound, in assay [5], the “RF (resistance factor), D024 SDHC3 KO (SDHC)” value (shortened to “RF … (SDHC)”) is reported as 1.0. Moreover, the EC50 in assay [6] (read-out: EC50 (nM) Mean, strain 06STD024) amounted to 1180 nM; in assay [6] (read-out: EC50 (nM) Mean, strain 07STGB009), 514 nM; in assay [6] (read-out: EC50 (nM) Mean, strain 09STD041), 644 nM; in assay [6] (read-out: EC50 (nM) Mean, strain 09STD053), 512 nM; in assay [6] (read-out: EC50 (nM) Mean, strain 09STF011), 581 nM; in assay [6] (read-out: EC50 (nM) Mean, strain 09STF037), 591 nM. For the same compound, the EC50 in assay [6] (read-out: EC50 (nM) Mean, strain 09STF112) was 720 nM; in assay [6] (read-out: EC50 (nM) Mean, strain 09STIR20.3) it was 798 nM; in assay [6] (read-out: EC50 (nM) Mean, strain Flu21 (SDHC1_A84I)), 3020 nM; in assay [6] (read-out: EC50 (nM) Mean, strain IPO323) it was 384 nM; in assay [6] (read-out: EC50 (nM) Mean, strain IPO94269), 853 nM; in assay [6] (read-out: EC50 (nM) Mean, strain KO_SDHC1_T1), 2160 nM. The EC50 was 2050 nM in assay [6] (read-out: EC50 (nM) Mean, strain KO_SDHC1_T3); 637 nM in assay [6] (read-out: EC50 (nM) Mean, strain KO_SDHC3_T4); 681 nM in assay [6] (read-out: EC50 (nM) Mean, strain KO_SDHC3_T13); 776 nM in assay [6] (read-out: EC50 (nM) Mean, strain pTet::SDHC3_I78A_T1); 1680 nM in assay [6] (read-out: EC50 (nM) Mean, strain pTet::SDHC3_I78A_T5); 768 nM in assay [6] (read-out: EC50 (nM) Mean, strain pTet::SDHC3_I78A_T15). Moreover, the EC50 in assay [6] (read-out: EC50 (nM) Mean, strain pTet::SDHC3_I78A_T35) was 270 nM; in assay [6] (read-out: EC50 (nM) Mean, strain pTet::SDHC3_T1), 1300 nM; in assay [6] (read-out: EC50 (nM) Mean, strain pTet::SDHC3_T2), 1420 nM; in assay [6] (read-out: EC50 (nM) Mean, strain pTet::SDHC3_T3) it was 1450 nM; in assay [6] (read-out: EC50 (nM) Mean, strain pTet::SDHC3_T7) it was 1460 nM.

Take `CON(C(=O)c1cn(C)nc1C(F)F)[C@@H](C)Cc1ccc(Cl)cc1Cl` [Compound 3]: the IC50 in assay [3] was found to be 22.7 ± 0.8 nM; in assay [4] it was 26.4 ± 1.2 nM; in assay [5], 0.8 ± 0.13 nM; in assay [7] it was 0.7 ± 0.2 nM. Besides, the “RF … (SDHC)” value in assay [5] stood at 1.2.

In the case of `Cc1cc(OC(C)C)ccc1C(=O)C(C)(C)NC(=O)c1sccc1C` [Isofetamid], the IC50 in assay [3] is more than 50000 nM; in assay [7], 0.9 ± 0.1 nM. For the same compound, the “Growth on isofetamid-supplemented agar plate” value in assay [8] (isolate 09STIR20.1 (ZtSDHC3 frameshift), 10 DPI, 5 mg.L^-1) was “did not grow”. Moreover, the “Growth phenotype on SDHI-amended plate” value in assay [8] (strain 06STD024) is on record as “Very strong”; in assay [8] (strain 07STGB009), “Very strong”; in assay [8] (strain 09STD041) it was “Strong”; in assay [8] (strain 09STD053) it was “Strong”; in assay [8] (strain 09STF011), “Strong”; in assay [8] (strain 09STF037), “Weak”. Besides, the “Growth phenotype on SDHI-amended plate” value was “Strong” in assay [8] (strain 09STF112), “Weak” in assay [8] (strain 09STIR20.3), “No” in assay [8] (strain IPO323) and “No” in assay [8] (strain IPO94269).

On to `CC(C)CC(C)c1sccc1NC(=O)c1cn(C)nc1C(F)(F)F` (stereo not shown) [Penthiopyrad], for which the “RF (resistance factor), pTet Repressed (SDHC / altC)” value in assay [1] came to 1.4. Further, the IC50 in assay [1] was 1.9 ± 0.4 nM; in assay [2], 1.8 ± 0.1 nM; in assay [3], 1.6 ± 0.7 nM; in assay [4], 2 ± 0.8 nM; in assay [5] it was 1.5 ± 0.3 nM; in assay [7], 1.4 ± 0.3 nM. Besides, the “RF (resistance factor), D024 SDHC1 KO (altC)” value in assay [3] turned out to be 1.2. For the same compound, the “RF (resistance factor), 06STD024 (SDHC / altC)” value in assay [4] was 1.4. Also, the “RF … (SDHC)” value in assay [5] amounted to 1.1.

The values are drawn from PMC6941823, “A dispensable paralog of succinate dehydrogenase subunit C mediates standing resistance towards a subclass of SDHI fungicides in Zymoseptoria tritici” (PLoS Pathogens, 2019).
